Experimental data taken from ChEMBL document CHEMBL2163275, “The lipogenesis pathway as a cancer target” (J Med Chem, 2011).
Each block holds one compound with its values, some of them ahead of it.

How the values were obtained:
Fatty acid synthase [1] = molecular target: T1, Fatty acid synthase (Homo sapiens, UniProt P49327); assay: Inhibition of FASN in human SKBR3 cells; assay type: cell-based, SK-BR-3
Fatty acid synthase [2] = molecular target: T1, Fatty acid synthase; assay: Reversible inhibition of human recombinant FASN ketoreductase site
Acetyl-CoA carboxylase 2 = Acetyl-CoA carboxylase 2 (Homo sapiens, UniProt O00763); assay: Inhibition of human ACC2 using acetyl coA as substrate and [14C]NaHCO3 incubated for 5 mins prior to substrate addition by liquid scintillation counting
Acetyl-CoA carboxylase 1 = Acetyl-CoA carboxylase 1 (Homo sapiens, UniProt Q13085); assay: Inhibition of human ACC1 using acetyl coA as substrate and [14C]NaHCO3 incubated for 5 mins prior to substrate addition by liquid scintillation counting
Fatty acid synthase [3] = molecular target: T1, Fatty acid synthase; assay: Antagonist activity at recombinant FASN thioesterase domain by fluorogenic assay; assay type: functional
[4] = Inhibition of rat liver ACC
ATP-citrate synthase [5] = molecular target: T2, ATP-citrate synthase (Rattus norvegicus, UniProt P16638); assay: Competitive inhibition of rat liver ACLY using CoA as substrate by spectrophotometric analysis
T2 sequence (P16638 whole entry): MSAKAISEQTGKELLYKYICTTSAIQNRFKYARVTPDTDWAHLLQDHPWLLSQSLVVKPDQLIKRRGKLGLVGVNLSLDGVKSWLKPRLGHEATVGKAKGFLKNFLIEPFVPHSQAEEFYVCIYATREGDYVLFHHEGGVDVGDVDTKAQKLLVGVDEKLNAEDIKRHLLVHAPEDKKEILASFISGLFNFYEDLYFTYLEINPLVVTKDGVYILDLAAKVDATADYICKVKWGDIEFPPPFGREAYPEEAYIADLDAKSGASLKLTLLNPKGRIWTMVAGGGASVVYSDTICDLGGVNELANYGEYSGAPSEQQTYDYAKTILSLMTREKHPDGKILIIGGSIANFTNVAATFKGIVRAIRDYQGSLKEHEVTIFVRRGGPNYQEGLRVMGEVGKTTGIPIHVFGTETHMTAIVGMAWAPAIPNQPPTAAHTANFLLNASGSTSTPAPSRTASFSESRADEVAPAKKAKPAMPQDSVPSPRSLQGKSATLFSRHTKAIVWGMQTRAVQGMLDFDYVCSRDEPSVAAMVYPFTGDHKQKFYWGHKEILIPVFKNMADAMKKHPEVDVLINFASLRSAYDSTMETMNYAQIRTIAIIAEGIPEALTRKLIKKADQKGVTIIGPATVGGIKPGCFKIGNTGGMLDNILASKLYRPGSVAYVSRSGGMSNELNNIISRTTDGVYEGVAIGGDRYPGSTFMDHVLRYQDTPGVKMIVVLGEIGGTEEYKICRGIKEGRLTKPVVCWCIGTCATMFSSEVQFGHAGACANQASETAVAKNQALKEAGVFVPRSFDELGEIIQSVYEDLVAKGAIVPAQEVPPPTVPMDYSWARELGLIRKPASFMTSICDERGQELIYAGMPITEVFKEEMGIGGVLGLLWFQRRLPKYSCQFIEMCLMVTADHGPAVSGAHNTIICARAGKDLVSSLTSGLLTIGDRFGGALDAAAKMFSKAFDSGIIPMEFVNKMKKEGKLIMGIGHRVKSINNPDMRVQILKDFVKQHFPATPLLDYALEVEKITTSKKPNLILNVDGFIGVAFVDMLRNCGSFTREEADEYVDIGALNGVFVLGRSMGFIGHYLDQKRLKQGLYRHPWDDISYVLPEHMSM

ATP-citrate synthase [6] = molecular target: T2, ATP-citrate synthase; assay: Competitive inhibition of rat liver ACLY using citrate as substrate by spectrophotometric analysis
Fatty acid synthase [7] = molecular target: T3, Fatty acid synthase (Gallus gallus, UniProt P12276); assay: Inhibition of chicken liver FASN ketoreductase activity
Fatty acid synthase [8] = molecular target: T3, Fatty acid synthase; assay: Inhibition of chicken liver FASN after 3 hrs
BGC-823 = assay: Cytotoxicity against human BGC823 cells; assay type: functional, cell-based
[9] = Inhibition of duck liver FASN; parameters: species or system Anas platyrhynchos
ATP-citrate synthase [10] = molecular target: T2, ATP-citrate synthase; assay: Competitive inhibition of rat liver ACLY using ATP as substrate by spectrophotometric analysis
Fatty acid synthase [11] = molecular target: T1, Fatty acid synthase; assay: Inhibition of FASN in human HepG2 cells; assay type: cell-based
Fatty acid synthase [12] = molecular target: Fatty acid synthase (Rattus norvegicus, UniProt P12785); assay: Inhibition of FASN in rat liver
[13] = Inhibition of Escherichia coli FabB

T1 sequence (P49327 whole entry): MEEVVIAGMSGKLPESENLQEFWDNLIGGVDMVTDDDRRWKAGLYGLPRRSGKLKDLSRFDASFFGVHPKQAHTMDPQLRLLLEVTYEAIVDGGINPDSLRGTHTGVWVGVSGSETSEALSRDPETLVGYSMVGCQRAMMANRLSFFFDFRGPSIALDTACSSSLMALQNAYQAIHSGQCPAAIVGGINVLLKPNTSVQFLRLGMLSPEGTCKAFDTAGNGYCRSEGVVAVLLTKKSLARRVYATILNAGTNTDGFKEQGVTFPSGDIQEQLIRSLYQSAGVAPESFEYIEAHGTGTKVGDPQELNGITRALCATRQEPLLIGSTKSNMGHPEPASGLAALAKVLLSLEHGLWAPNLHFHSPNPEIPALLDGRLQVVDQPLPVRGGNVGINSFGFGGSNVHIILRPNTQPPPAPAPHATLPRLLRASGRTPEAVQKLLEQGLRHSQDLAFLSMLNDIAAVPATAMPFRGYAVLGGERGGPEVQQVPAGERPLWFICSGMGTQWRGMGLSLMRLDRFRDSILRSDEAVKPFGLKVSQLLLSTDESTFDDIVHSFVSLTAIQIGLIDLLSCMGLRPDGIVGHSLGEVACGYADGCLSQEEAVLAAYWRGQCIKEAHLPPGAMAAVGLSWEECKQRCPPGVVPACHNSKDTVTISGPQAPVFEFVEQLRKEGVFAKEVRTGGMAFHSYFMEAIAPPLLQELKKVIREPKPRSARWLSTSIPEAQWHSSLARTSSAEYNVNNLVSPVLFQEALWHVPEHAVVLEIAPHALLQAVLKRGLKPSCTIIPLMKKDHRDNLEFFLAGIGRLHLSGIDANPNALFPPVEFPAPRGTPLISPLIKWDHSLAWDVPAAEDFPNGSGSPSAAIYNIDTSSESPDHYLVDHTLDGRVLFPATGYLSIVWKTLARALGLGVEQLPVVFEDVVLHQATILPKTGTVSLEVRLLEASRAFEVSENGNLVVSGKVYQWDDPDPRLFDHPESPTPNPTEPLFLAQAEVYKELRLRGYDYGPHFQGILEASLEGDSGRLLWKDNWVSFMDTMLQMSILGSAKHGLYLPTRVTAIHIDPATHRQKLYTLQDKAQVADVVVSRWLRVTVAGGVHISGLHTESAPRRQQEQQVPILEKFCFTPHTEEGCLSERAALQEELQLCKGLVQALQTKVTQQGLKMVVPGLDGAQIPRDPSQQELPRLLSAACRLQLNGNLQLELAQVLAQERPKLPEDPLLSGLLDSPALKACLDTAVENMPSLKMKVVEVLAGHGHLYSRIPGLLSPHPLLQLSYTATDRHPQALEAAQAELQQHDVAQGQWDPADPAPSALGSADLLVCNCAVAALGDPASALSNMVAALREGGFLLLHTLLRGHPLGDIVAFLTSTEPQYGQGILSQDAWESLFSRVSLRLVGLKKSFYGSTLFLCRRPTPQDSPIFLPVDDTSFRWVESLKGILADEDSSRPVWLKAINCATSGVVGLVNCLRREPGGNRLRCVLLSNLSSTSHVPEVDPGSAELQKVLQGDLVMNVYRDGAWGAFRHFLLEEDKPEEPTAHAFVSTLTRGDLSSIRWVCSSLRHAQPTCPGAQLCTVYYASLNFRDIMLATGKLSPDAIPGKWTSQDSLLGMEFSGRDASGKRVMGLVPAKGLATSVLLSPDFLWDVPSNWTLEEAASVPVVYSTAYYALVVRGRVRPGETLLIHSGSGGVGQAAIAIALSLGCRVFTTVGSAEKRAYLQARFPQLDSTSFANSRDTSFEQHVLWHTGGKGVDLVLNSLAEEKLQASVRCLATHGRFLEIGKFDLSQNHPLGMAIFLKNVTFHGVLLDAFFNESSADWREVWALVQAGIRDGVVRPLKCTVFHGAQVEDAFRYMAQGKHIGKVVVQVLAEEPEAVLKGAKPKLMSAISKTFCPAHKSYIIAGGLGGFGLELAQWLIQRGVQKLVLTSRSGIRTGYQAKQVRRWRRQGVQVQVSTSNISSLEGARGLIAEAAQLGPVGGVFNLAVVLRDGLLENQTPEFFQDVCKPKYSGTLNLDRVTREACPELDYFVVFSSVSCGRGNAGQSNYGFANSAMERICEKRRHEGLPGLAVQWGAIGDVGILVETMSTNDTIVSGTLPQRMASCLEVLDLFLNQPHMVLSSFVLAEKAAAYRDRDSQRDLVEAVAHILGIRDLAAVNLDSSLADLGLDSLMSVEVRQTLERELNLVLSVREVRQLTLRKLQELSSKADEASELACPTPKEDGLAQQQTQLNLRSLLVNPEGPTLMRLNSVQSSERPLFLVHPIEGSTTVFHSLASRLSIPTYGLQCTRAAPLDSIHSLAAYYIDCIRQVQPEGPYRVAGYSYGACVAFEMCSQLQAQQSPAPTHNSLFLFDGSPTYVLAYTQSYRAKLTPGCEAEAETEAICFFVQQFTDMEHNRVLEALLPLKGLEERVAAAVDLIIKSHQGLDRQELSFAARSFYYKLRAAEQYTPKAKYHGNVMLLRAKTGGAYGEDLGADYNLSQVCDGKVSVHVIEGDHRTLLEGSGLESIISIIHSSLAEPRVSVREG
T3 sequence (P12276 whole entry): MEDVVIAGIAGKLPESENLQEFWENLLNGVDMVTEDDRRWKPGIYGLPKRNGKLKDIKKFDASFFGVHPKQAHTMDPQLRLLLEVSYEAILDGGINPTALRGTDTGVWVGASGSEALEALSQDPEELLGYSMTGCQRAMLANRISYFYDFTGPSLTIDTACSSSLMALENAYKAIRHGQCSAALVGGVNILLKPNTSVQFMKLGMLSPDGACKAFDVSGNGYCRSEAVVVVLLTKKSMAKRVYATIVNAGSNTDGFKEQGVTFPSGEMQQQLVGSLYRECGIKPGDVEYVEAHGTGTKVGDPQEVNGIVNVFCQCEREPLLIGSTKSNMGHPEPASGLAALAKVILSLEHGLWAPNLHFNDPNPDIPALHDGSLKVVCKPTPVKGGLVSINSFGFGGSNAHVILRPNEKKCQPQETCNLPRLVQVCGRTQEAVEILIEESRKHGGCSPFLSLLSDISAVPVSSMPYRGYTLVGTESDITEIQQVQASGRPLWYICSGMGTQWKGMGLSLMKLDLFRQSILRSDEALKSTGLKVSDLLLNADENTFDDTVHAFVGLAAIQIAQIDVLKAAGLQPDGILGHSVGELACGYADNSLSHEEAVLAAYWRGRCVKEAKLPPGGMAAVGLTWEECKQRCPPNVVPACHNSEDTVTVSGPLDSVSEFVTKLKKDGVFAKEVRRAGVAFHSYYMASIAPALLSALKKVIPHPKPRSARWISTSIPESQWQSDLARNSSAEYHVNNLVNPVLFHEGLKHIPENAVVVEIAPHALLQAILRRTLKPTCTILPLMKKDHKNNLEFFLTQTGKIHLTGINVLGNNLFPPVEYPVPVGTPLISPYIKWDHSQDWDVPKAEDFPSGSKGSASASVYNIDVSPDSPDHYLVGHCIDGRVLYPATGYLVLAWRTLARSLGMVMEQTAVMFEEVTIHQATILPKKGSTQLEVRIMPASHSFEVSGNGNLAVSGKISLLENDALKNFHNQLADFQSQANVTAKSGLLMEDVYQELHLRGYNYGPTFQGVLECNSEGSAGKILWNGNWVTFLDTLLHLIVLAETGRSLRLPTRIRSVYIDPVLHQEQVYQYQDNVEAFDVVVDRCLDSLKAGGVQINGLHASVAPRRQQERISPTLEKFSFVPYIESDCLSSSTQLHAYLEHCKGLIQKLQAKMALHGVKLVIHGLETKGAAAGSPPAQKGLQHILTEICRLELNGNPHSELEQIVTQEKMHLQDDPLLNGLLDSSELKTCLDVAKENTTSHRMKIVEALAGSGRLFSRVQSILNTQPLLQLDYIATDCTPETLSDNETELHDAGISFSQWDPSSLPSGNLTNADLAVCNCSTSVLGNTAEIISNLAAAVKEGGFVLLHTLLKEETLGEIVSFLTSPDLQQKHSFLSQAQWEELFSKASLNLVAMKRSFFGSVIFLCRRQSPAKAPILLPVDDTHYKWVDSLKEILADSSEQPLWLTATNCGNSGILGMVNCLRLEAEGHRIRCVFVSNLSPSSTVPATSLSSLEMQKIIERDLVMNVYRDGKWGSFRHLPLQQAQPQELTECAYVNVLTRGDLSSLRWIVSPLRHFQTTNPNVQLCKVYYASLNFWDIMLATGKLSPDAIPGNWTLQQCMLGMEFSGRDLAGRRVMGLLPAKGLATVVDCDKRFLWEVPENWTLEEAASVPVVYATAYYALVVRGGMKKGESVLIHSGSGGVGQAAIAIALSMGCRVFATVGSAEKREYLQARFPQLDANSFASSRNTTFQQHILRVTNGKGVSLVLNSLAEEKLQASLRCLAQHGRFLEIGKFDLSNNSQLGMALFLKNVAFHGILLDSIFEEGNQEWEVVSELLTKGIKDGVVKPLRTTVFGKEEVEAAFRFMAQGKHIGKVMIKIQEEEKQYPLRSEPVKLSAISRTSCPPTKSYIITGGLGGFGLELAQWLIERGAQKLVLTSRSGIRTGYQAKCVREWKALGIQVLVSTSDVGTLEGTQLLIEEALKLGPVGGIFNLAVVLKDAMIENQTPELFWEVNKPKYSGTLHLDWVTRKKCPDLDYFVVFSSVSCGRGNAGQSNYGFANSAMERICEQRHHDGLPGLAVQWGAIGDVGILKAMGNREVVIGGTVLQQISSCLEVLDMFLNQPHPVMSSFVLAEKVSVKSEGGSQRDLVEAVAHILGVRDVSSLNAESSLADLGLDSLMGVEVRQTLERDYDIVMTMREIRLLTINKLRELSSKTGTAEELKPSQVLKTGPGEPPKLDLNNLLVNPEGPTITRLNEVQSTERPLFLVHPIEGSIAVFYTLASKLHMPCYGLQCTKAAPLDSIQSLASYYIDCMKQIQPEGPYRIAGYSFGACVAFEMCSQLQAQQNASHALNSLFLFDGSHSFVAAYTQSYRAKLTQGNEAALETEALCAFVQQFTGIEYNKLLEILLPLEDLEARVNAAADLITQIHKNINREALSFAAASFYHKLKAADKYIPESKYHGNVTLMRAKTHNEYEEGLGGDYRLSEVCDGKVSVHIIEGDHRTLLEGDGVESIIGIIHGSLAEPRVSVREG

IC50 (Fatty acid synthase [1]): 100 µM
SMILES: CCCCC/C=C\C=C\CCCCCCCCC(=O)O

IC50 (Fatty acid synthase [2]): 0.0158 µM
SMILES: Cc1ccnc(NS(=O)(=O)c2ccc(NC(=O)Nc3ccc(S(=O)(=O)Nc4nccc(C)n4)cc3)cc2)n1

IC50 (Acetyl-CoA carboxylase 2): 2.8 µM
IC50 (Acetyl-CoA carboxylase 1): > 100 µM
SMILES: CC(C)Oc1ccc(C2=NC(CSc3nc4ncccc4o3)CO2)cc1 (configuration not stated)

Ki (Fatty acid synthase [3]): 2.5 µM
SMILES: O=C1O[C@@H](CCc2ccccc2)[C@H]1Cc1ccccc1

Ki [4]: 70 µM
Ki (ATP-citrate synthase [5]): 3 µM
Ki (ATP-citrate synthase [6]): 16 µM
SMILES: CC(C)(CCCCCCCCCCC(C)(C)CC(=O)O)CC(=O)O

IC50 (Fatty acid synthase [7]): 68 µM
IC50 (Fatty acid synthase [8]): 42 µM
SMILES: O=C(O[C@@H]1Cc2c(O)cc(O)cc2O[C@@H]1c1ccc(O)c(O)c1)c1cc(O)c(O)c(O)c1 [EPICATECHIN GALLATE]

IC50 [9]: 0.21 µM
SMILES: O=C(O[C@H]1O[C@@H]2COc3c(c4cc(O)c(O)c(O)c4c4c(O)c(O)c(O)cc34)O[C@H]2[C@H](OC(=O)c2cc(O)c(O)c(O)c2)[C@H]1OC(=O)c1cc(O)c(O)c(O)c1)c1cc(O)c(O)c(Oc2c(C(=O)O[C@@H]3O[C@@H]4COC(=O)c5cc(O)c(O)c(O)c5-c5c(cc(O)c(O)c5O)C(=O)O[C@H]4[C@@H]4OC(=O)c5cc(O)c(O)c(O)c5-c5c(cc(O)c(O)c5O)C(=O)O[C@@H]34)cc(O)c(O)c2O)c1 [GEMIN A]
IC50 (BGC-823): 40.4 µM

SMILES: C[C@@H]1C[C@H]2O[C@@H]2/C=C\C=C\C(=O)Cc2c(Cl)c(O)cc(O)c2C(=O)O1 [RADICICOL]
Ki (ATP-citrate synthase [10]): 7 µM
Ki (ATP-citrate synthase [6]): 13 µM

IC50 (Fatty acid synthase [11]): > 380 µM
IC50 (Fatty acid synthase [12]): > 951 µM
IC50 [13]: 1.9 µM
SMILES: C=C/C(C)=C/[C@@]1(C)SC(=O)C(C)=C1O [THIOLACTOMYCIN]
